Experimental findings from publication PMC8062851, “2-Methoxyestradiol and its derivatives inhibit store-operated Ca^2+ entry in T cells: Identification of a new and potent inhibitor” (Biochimica et Biophysica Acta. Molecular Cell Research, 2021) are described below.

In test [1] the test system is SOCE in human Jurkat T cells. In words: cells. It is filed as cell-based. The following applies: Jurkat T cells. The procedure:
(§1) Jurkat T-lymphocytes, primary human CD4^+ T cells and H1299 cells were pelleted at 450 ×g for 5 min, rat TMBP at 300 ×g for 8 min at room temperature and were resuspended in 1 ml of either standard JMP medium (Jurkat, H1299 and human CD4^+ T cells) or standard DMEM based medium containing 10% fetal bovine serum (FBS) (v/v) (TMBP cells). Resting TMBP cells (day 5–7 after re-stimulation) after the second to fifth re-stimulation were thawed from liquid nitrogen 12 to 40 h prior to Fura2-loading. After pre-incubation for 5 min at 37 °C, cells were incubated with 4 μM Fura2-AM for 15 min at 37 °C. After addition of the dye, cells were kept in the dark. Afterwards, cells and the dye were diluted by addition of 4 ml standard medium and incubated for another 15 min. Cells were washed twice in Ca^2+ buffer (140 mM NaCl, 5 mM KCl, 1 mM MgSO4, 1 mM CaCl2, 1 mM NaH2PO4, 20 mM HEPES, 5.5 mM glucose; pH 7.4 (NaOH), sterile filtered) and were diluted to a concentration of 2*10^6 cells/ml. Subsequently, cells were kept at room temperature for 20 min for de-esterification before the start of the first measurement.
(§2) In experiments using a Ca^2+ free/Ca^2+ re-addition protocol, cells were pelleted as described for Fura2 loading and Ca^2+ buffer was exchanged by 1 ml nominal Ca^2+ free buffer (140 mM NaCl, 5 mM KCl, 1 mM MgSO4, 1 mM NaH2PO4, 20 mM HEPES, 5.5 mM glucose; pH 7.4 (NaOH), sterile filtered) immediately before starting the measurement. The measurement was controlled by FL Solutions (Version 4.1, Hitachi High-Technologies Corporation). Fura2 was alternatively excited every 2 s at 340 ± 5 nm and 380 ± 5 nm, each 400 ms apart.
Finally, every measurement was calibrated using 0.1% (v/v) Triton X-100 to obtain a maximal ratio and 4 mM EGTA and 30 mM Tris to obtain a minimal ratio.
R is the ratio between F340 and F380. Rmin and Rmax are the minimal and maximal ratio, respectively, obtained by calibration. F380 min and F380 max are the minimal and maximal fluorescence intensity at 380 nm EX during the calibration. Finally, artefacts due to compound additions that usually could easily be identified and lasted about 8 s were deleted from the tracings using FL Solutions (Version 4.1, Hitachi High-Technologies Corporation). The fluorescence intensities of deleted data points were interpolated from those just before and after the deleted time points.
Estradiol, 2ME2 and 2ME2 derivatives were dissolved in DMSO at a concentration of 50 mM and stored at −20 °C for up to 6 months. For concentration-response curves, stock solution was freshly diluted with DMSO to obtain the same DMSO concentration of 0.2% (v/v) for all conditions.
The compound concentrations were then log transformed. Finally, the data were fitted to a corresponding nonlinear fit of variable slope using Prism 6 (GraphPad Software, USA).

Test [2] concerns SOCE in Jurkat T cells. Description: Inhibition during activated SOCE (thapsigargin or anti-CD3 OKT3, 1 mM extracellular Ca2+) in Jurkat T cells. In kind it is cell-based, human. The settings on record: Homo sapiens, Jurkat, Jurkat T cells stimulated by 1 μM thapsigargin (TG); 1 mM extracellular Ca2+; read-out: IC50 of SOCE inhibition during active SOCE. The procedure: as §1
as §2, with “10^6 Jurkat T-lymphocytes, H1299 cells, TMBP cells or 4*10^6 primary human CD4^+ T cells were added into a 10 × 10 mm quartz glass cuvette (Hellma Analytics, Germany) that was placed into a fluorescence spectrophotometer (F-2710, Hitachi, Japan). In” for “In”, “apart. Fluorescence intensity was measured at an emission wavelength of 495 ± 5 nm for both excitation wavelengths.” for “apart.”
Finally, every measurement was calibrated using 0.1% (v/v) Triton X-100 to obtain a maximal ratio and 4 mM EGTA and 30 mM Tris to obtain a minimal ratio. […]
Besides the Ca^2+ free/Ca^2+ re-addition protocol, we also characterized the effect of STX564 in cells during activated SOCE in the presence of thapsigargin (TG, Fig. 2A,B) or upon stimulation via their TCR/CD3 complex (Fig. 2C). […]. […] Similarly, in Fig. 2C this effect of a partial or full recovery of SOCE was also observed, a few minutes after STX564 addition.

Test [3] concerns TMBP cells. In words: In vitro activation of TMBP cells by MBP, cytokine mRNA by qPCR. It is filed as cell-based, rat. The settings on record: TMBP cells + MBP; 6 h; qPCR. Here is the method: Myelin basic protein (MBP)-reactive CD4^+ T cells retrovirally transduced to express enhanced GFP (TMBP cells) were established as previously reported. In brief, 6–8 week old female Lewis rats were immunized subcutaneously with 150 μl of emulsion consisting of equal parts of MBP (stock concentration: 1 mg/ml) and complete Freund's adjuvant containing heat-inactivated Mycobacterium tuberculosis extract (Difco; stock concentration: 2 mg/ml). Draining lymph nodes were harvested and passed through a cell strainer (40 μm) 9–10 days after immunization. The cell suspension was co-cultured with GP + E86 packaging cell lines producing replication-deficient retroviruses in the presence of 10 μg/ml MBP. Murine IL-2 was added to the culture for T cell expansion from day 2–4 after stimulation. The cell lines underwent 3–4 cycles of stimulation before being used for in vitro and in vivo experiments. […] Upon stimulation, they produced interferon-γ and IL-17.
(§3) In vitro activation assays were performed in 96-well plates. […]. TMBP cell activation on mRNA level was determined using qPCR and on surface protein level using surface marker staining and subsequent flow cytometry analysis.
(§4) Total RNA was isolated using the standard TRIzol method. cDNA was synthesized using the RevertAid First Strand cDNA Synthesis Kit (Thermo Fisher Scientific). Quantitative PCR (qPCR) was performed using the StepOnePlus™ Real-Time PCR System (Applied Biosystems), as previously described [[23], [24], [25]]. Rat TMBP cell data were obtained from three to four independent duplicate measurements. β-actin served as housekeeping gene. Human PBMC data were obtained from two independent healthy donors and duplicate measurements (representative data of one donor are shown). HPRT served as housekeeping gene. For all probes (TaqMan), a combination of 5′-FAM and 3′-TAMRA quencher was used as described.
Background: In qPCR the cycle at which signal appears reflects the starting amount.

Test [4] has as its system TMBP cells. Description: In vitro activation of TMBP cells by MBP, CD25 surface expression by flow cytometry. It is filed as cell-based, rat. The procedure: as §3
To assess in vitro T cell activation, surface staining for CD25 (OX39, Bio-Rad) was performed. APC-labelled goat anti-mouse antibody (Jackson ImmunoResearch) was used as secondary antibody. Mouse IgG1κ (MOPC 31C, Sigma-Aldrich) was used as control.
Cytofluorometric analysis was carried out with a CytoFLEX S (Beckman Coulter) operated by CytExpert software (Beckman Coulter). All procedures were performed at 4 °C. Data were analyzed by using FlowJo software (FlowJo, LLC).
In general terms: In flow cytometry, cells or beads pass a laser one at a time.

The subject of test [5] is human PBMCs. In words: In vitro activation of human PBMCs by anti-CD3, interferon-γ mRNA by qPCR. The following applies: human PBMC; anti-CD3 stimulation. It is filed as cell-based. The procedure:
In vitro activation assays were performed in 96-well plates. Briefly, 10^5 PBMCs isolated from human peripheral blood by Ficoll gradient were added onto plates coated with anti-human CD3 monoclonal antibody (5 μg ml^−1 in PBS, clone OKT3, Biolegend). 2ME2 or STX564 dissolved in DMSO were added in varying concentrations (0.01, 0.1, 1, 10 μM). […]. PBMC activation on mRNA level was determined using qPCR on samples collected 24 h after CD3 stimulation.
as §4

Structures are written as SMILES.

Broadly, the IC50 is the concentration that gives 50% inhibition. Turning to `COc1cc2c(cc1O)CC[C@@H]1[C@@H]2CC[C@]2(C)[C@@H](O)CC[C@@H]12` [2ME2, 2-Methoxyestradiol], the IC50 is 20 µM in test [1] (Homo sapiens, Jurkat, Ca2+ free/Ca2+ re-addition protocol, plateau 425-475 s after re-addition of 1 mM Ca2+, read-out: IC50 of SOCE inhibition) and 71 µM in test [2]. The “fold higher potency compared to estradiol in inhibiting Ca2+ entry” value in test [1] (SOCE) turned out to be 2.5 fold. The “concentration at which TCR/CD3-evoked pro-inflammatory cytokine expression was significantly reduced” value in test [3] was “significantly higher concentrations”. For the same compound, the “concentration at which up-regulation of CD25 was significantly reduced” value in test [4] is “much higher concentration”. Also, the “fold higher concentration necessary compared to STX564 for antagonist effect on interferon-γ expression” value in test [5] is “approx. 10 fold”.
